Series [1] concerns SSPN mRNA. Nature of the series: siRNA-mediated knockdown of SSPN in mdx myotubes, SSPN mRNA. The class given is cell-based, murine. On the procedure: (§1) RNA from myotubes treated for 48 hrs was extracted from cells using Trizol-based (Thermo Fisher Scientific) phase separation, Chomczynski et al., Biotechniques. 1993; 15(3):532-4, 6-7. RNA concentrations were determined using a NanoDrop 1000 (Thermo Fisher Scientific) and 750 ng of RNA in a 20 Id reaction was reverse transcribed using iScript cDNA synthesis (Bio-Rad) with the following cycling conditions: 25° C. for 5 mins, 42° C. for 30 mins, 85° C. for 5 mins. For mouse qPCR, SsoFast EvaGreen Supermix (Bio-Rad), 400 nM of each optimized forward and reverse primer (SSPN F: 5′ […] 3′, SSPN R: 5′ […] 3′, BACT F: 5′ […] 3′, BACT R: 5′ […] 3′), and cDNA corresponding to 37.5 ng RNA were used to amplify cDNA measured by QuantStudio 5 Real-Time PCR System (Thermo Fisher Scientific) with the following reaction conditions: 55° C. for 2 mins, 95° C. for 2 mins, 40 cycles of 95° C. for 10 seconds and 62° C. for 30 seconds, and dissociation stage. For qPCR of human samples, TaqMan assays were used to quantify SSPN (assay ID Hs01025520m 1) and ACTB (assay ID Hs01060665_g1) with the following reaction conditions: 50° C. for 2 mins, 95° C. for 10 mins, 40 cycles of 95° C. for 15 seconds and 62° C. for 1 minute. […] Data was analyzed using the ddCT method and normalized to reference gene ACTB with vehicle-treated samples serving as the calibrator (relative expression of vehicle control=1). […]

In the next series the test system is SSPN gene expression. The series can be described thus: SSPN gene expression (qPCR) in dystrophin-deficient H2K mdx myotubes. The conditions noted are these: 0.5 to 50 μM. It is filed as cell-based, murine. The method, then:
(§2) C2C12 cells (American Type Culture Collection) were grown at 37° C. with 5% CO2 in growth medium containing DMEM (Gibco) with 20% FBS (Sigma-Aldrich). Upon reaching 90-100% confluency, myoblasts were induced to differentiate by replacing the medium with differentiation medium consisting of DMEM with 2% horse serum (Sigma-Aldrich). Conditionally immortalized H2K WT and mdx myoblasts with a nonsense mutation in exon 23 of dystrophin were a gift from Terrance Partridge, Ph.D. (Children's National Medical Center, Washington, D.C.). […]
RNA from myotubes treated for 48 hrs was extracted from cells using Trizol-based (Thermo Fisher Scientific) phase separation, Chomczynski et al., Biotechniques. […] RNA concentrations were determined using a NanoDrop 1000 (Thermo Fisher Scientific) and 750 ng of RNA in a 20 Id reaction was reverse transcribed using iScript cDNA synthesis (Bio-Rad) with the following cycling conditions: 25° C. for 5 mins, 42° C. for 30 mins, 85° C. for 5 mins. […] For qPCR of human samples, TaqMan assays were used to quantify SSPN (assay ID Hs01025520m 1) and ACTB (assay ID Hs01060665_g1) with the following reaction conditions: 50° C. for 2 mins, 95° C. for 10 mins, 40 cycles of 95° C. for 15 seconds and 62° C. for 1 minute. […]

The nature of series [2]: Half-life analysis in CD-1 mouse plasma. It is filed as in vitro ADME, CD-1 mice. The conditions noted are these: 37° C. On the procedure:
Half-life analysis was performed by Eurofins Panlabs Inc. using 1 μM of compound with a final DMSO concentration of 0.5%. PBS or plasma from CD-1 mice was pre-warmed to 37° C. for 5 mins before addition of the test compounds and continued incubation at 37° C. At 0, 30, 60, 120, 240, and 1440 mins an aliquot of solution containing compounds was mixed with acetonitrile/methanol, mixed, and centrifuged. The supernatants were used for HPLC-MS/MS analysis.

Series [3] has as its system SSPN mRNA. The series can be described thus: SSPN gene expression in wild-type C2C12 myotubes. It is filed as cell-based, mouse. The method, then: as §2, with “D.C.). See, Morgan et al., Dev Biol. 1994; 162(2):486-98 Myoblasts were allowed to proliferate on 0.01% gelatin (Sigma-Aldrich) coated plates at 33° C. with 5% CO2 with growth medium containing DMEM, 20% HI-FBS (Invitrogen), 2% L-glutamine (Sigma-Aldrich), 2% chicken embryo extract (Accurate Chemical), 1% penicillin-streptomycin (Sigma-Aldrich), and 20 U/ml of fresh interferon gamma (Gibco).” for “D.C.).”
as §1, with “1993; 15(3):532-4, 6-7.” left out, “stage.” for “stage. For qPCR of human samples, TaqMan assays were used to quantify SSPN (assay ID Hs01025520m 1) and ACTB (assay ID Hs01060665_g1) with the following reaction conditions: 50° C. for 2 mins, 95° C. for 10 mins, 40 cycles of 95° C. for 15 seconds and 62° C. for 1 minute.”

As for `CCN(CC)c1ccc2cc(C(=O)Nc3ccc(C(=O)N4CCCCCC4)cc3)c(=O)oc2c1` [OT-9], the “SSPN mRNA levels under SSPN knockdown” value with SSPN mRNA [1] (24 nM SSPN siRNA plus OT-9) is listed as “increased SSPN mRNA levels”. In addition, in the series with SSPN mRNA [1] (24 nM scramble siRNA plus 1, 5 or 10 μM OT-9), the “increase of SSPN mRNA relative to the vehicle control” value is given as “up to 1.4 fold”. Also, the “concentration at which the concentration-dependent SSPN mRNA response peaked” value in the series on SSPN gene expression was found to be 5.5 µM. For the same molecule, the half-life at 1 μM in series [2] is 7.7 h. Besides, the “SSPN mRNA levels after compound removal” value with SSPN mRNA [3] (5 μM for 4 hours, 4, 24 and 48 hours after compound removal) is reported as “returned to baseline levels”. The “SSPN mRNA levels over the vehicle control” value with SSPN mRNA [3] (5 μM for 4 hours, immediately after compound removal (0h)) is reported as 1.5 fold. Further, in the series on SSPN mRNA [3] (5 μM, 48 hours), the “SSPN mRNA levels” value is reported as “increased SSPN mRNA levels”.
